Results published in patent publication US20220002279A1, “NOVEL IMIDAZOLE DERIVATIVE” (priority 2018, published 2022).
≈ marks a conversion by molar mass, not a printed value. Where two headings read alike, the source gives them in different places.

What was measured:
[1] = tested on: Escherichia coli strain ATCC25922; assay: Antimicrobial activity, MIC by broth microdilution; type: cell-based; conditions: ATCC25922, 18 h, cation-adjusted Mueller-Hinton broth, about 5×10^5 CFU/mL, 35° C., about 18 hours, read-out: MIC Escherichia coli ATCC25922
How it was run: (§1)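 MIC read by eye as the lowest drug level lacking visible growth after roughly 18 h at 35° C. Cells from heart infusion agar, set to McFarland 0.5 and diluted, were inoculated at about 5×10^5 CFU/mL into cation-adjusted Mueller-Hinton broth with compound, per adapted CLSI microdilution.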

[2] = tested on: Pseudomonas aeruginosa strain ATCC27853; assay: Antimicrobial activity, MIC by broth microdilution; type: cell-based; conditions: ATCC27853, 18 h, cation-adjusted Mueller-Hinton broth, about 5×10^5 CFU/mL, 35° C., about 18 hours, read-out: MIC Pseudomonas aeruginosa ATCC27853
How it was run: as §1

[3] = tested on: Klebsiella pneumoniae strain ATCC13883; assay: Antimicrobial activity, MIC by broth microdilution; type: cell-based; conditions: ATCC13883, cation-adjusted Mueller-Hinton broth, about 5×10^5 CFU/mL, 35° C., about 18 hours, read-out: MIC Klebsiella pneumoniae ATCC13883
How it was run: as §1

[4] = target: T1, Escherichia coli LpxC enzyme (Escherichia coli, UniProt P0A725); assay: Inhibitory activity on Escherichia coli LpxC enzyme (fluorescamine method); type: biochemical
T1 construct: made in house; host or cells: Escherichia coli
T1 sequence (P0A725 1-305): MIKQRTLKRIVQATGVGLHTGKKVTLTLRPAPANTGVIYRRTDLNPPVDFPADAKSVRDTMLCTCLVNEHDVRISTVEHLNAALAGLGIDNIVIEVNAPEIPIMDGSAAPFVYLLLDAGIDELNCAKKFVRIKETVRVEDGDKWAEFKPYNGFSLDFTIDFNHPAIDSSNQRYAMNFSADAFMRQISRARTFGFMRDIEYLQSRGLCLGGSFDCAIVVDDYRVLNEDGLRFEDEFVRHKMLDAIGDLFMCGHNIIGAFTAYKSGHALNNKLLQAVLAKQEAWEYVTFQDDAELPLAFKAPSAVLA
How it was run: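 LpxC reacted with UDP-3-O-(R-3-hydroxymyristoyl)-N-acetylglucosamine; product amine quantified after fluorescamine stop and pH 8.0 phosphate buffer addition, at 390 nm/495 nm. Inhibition curve built from a range of test compound concentrations.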

[5] = fluorescamine detection, 3.1 nmol/L enzyme, 20 μmol/L substrate, pH 6.5, 120 min, read-out: IC50 (inhibitory activity on Escherichia coli LpxC enzyme, Fluoresamine method)

CC(=O)N1C[C@@H]2[C@@H](C#Cc3ccc(-c4cc(Cn5ccnc5[C@H](C)O)on4)cc3)[C@@H]2C1 [Compound 86, 1-[(1R,5S,6s)-6-({4-[5-((2-[(1S)-1-hydroxyethyl]-1H-imidazol-1-yl}methyl)-1,2-oxazol-3-yl]phenyl}ethynyl)-3-azabicyclo[3.1.0]hexan-3-yl]ethan-1-one] was tested, and the MIC [1] was 1 µg/mL (≈ 2.4 µM), the MIC [2] was 32 µg/mL (≈ 76.8 µM) and the MIC [3] was 1 µg/mL (≈ 2.4 µM). For the same molecule, the IC50 [4, 5] was 46.4 nM.

For CC(=O)N[C@H]1C[C@H](C#Cc2ccc(-c3cc(Cn4ccnc4[C@H](C)O)no3)cc2)C1 [Compound 87, N-[trans-3-({4-[3-({2-[(1S)-1-hydroxyethyl]-1H-imidazol-1-yl}methyl)-1,2-oxazol-5-yl]phenyl}ethynyl)cyclobutyl]acetamide], the MIC [1] was 0.5 µg/mL (≈ 1.24 µM), the MIC [2] was over 128 µg/mL and the MIC [3] was 1 µg/mL (≈ 2.47 µM). The IC50 [4, 5] was 25.2 nM.

With CNC(=O)N1C[C@@H]2[C@@H](C#Cc3ccc(-c4cc(Cn5ccnc5[C@H](C)O)no4)cc3)[C@@H]2C1 [Compound 92, (1R,5S,6s)-6-({4-[3-({2-[(1S)-1-Hydroxyethyl]-1H-imidazol-1-yl}methyl)-1,2-oxazol-5-yl]phenyl}ethynyl)-N-methyl-3-azabicyclo[3.1.0]hexan-3-carboxamide] the MIC [1] was 0.5 µg/mL (≈ 1.16 µM), the MIC [2] was 16 µg/mL (≈ 37.1 µM) and the MIC [3] was 1 µg/mL (≈ 2.32 µM). For the same molecule, the IC50 [4, 5] was 54.9 nM.

C[C@H](O)c1nccn1Cc1cc(-c2ccc(C#C[C@@H]3[C@H]4CN(CCCCC(=O)O)C[C@@H]34)cc2)on1 [Compound 93, 5-[(1R,5S,6s)-6-({4-[3-((2-[(1S)-1-hydroxyethyl]-1H-imidazol-1-yl}methyl)-1,2-oxazol-5-yl]phenyl}ethynyl)-3-azabicyclo[3.1.0]hexan-3-yl]pentanoic acid] gave an MIC [1] of 4 µg/mL (≈ 8.43 µM), an MIC [2] of 8 µg/mL (≈ 16.9 µM) and an MIC [3] of 4 µg/mL (≈ 8.43 µM). The IC50 [4, 5] was 371 nM.

For C[C@H](O)c1nccn1Cc1cc(-c2ccc(C#C[C@@H]3[C@H]4CN(CCCCCC(=O)O)C[C@@H]34)cc2)on1 [Compound 94, 6-[(1R,5S,6s)-6-({4-[3-({2-[(1S)-1-hydroxyethyl]-1H-imidazol-1-yl}methyl)-1,2-oxazol-5-yl]phenyl}ethynyl)-3-azabicyclo[3.1.0]hexan-3-yl]hexanoic acid], the MIC [1] was 2 µg/mL (≈ 4.09 µM), the MIC [2] was 16 µg/mL (≈ 32.7 µM) and the MIC [3] was 4 µg/mL (≈ 8.19 µM). It also gave an IC50 [4, 5] of 412 nM.

In the case of C[C@H](O)c1nccn1Cc1cc(-c2ccc(C#C[C@@H]3[C@H]4CN(C(=O)CCC(=O)O)C[C@@H]34)cc2)on1 [Compound 95, 4-[(1R,5S,6s)-6-({4-[3-({2-[(1S)-1-hydroxyethyl]-1H-imidazol-1-yl}methyl)-1,2-oxazol-5-yl]phenyl}ethynyl)-3-azabicyclo[3.1.0]hexan-3-yl]-4-oxobutanoic acid], the MIC [1] is reported as 2 µg/mL (≈ 4.21 µM), the MIC [2] is reported as 16 µg/mL (≈ 33.7 µM) and the MIC [3] is reported as 4 µg/mL (≈ 8.43 µM). It also gave an IC50 [4, 5] of 134 nM.

Molecule C[C@H](O)c1nccn1[C@H](CO)c1cc(-c2ccc(C#C[C@@H]3[C@H]4CN(CCO)C[C@@H]34)cc2)on1 [Compound 96, (2S)-2-[5-(4-{[(1R,5S,6s)-3-(2-hydroxyethyl)-3-azabicyclo[3.1.0]hexan-6-yl]ethynyl}phenyl)-1,2-oxazol-3-yl]-2-{2-[(1S)-1-hydroxyethyl]-1H-imidazol-1-yl}ethan-1-ol] has an MIC [1] of 1 µg/mL (≈ 2.23 µM), an MIC [2] of 4 µg/mL (≈ 8.92 µM) and an MIC [3] of 2 µg/mL (≈ 4.46 µM). The IC50 [4, 5] was 259 nM.

C[C@H](O)c1nccn1Cc1cc(-c2ccc(C#CC3CC(N(C)C)C3)cc2)on1 (stereo partly drawn) [Compound 97, (1S)-1-(i{[5-(4-{[3-(dimethylamino)cyclobutyl]ethynyl}phenyl)-1,2-oxazol-3-yl]methyl}-1H-imidazol-2-yl)ethan-1-ol] was tested, and the MIC [1] was 4 µg/mL (≈ 10.2 µM), the MIC [2] was 32 µg/mL (≈ 81.9 µM) and the MIC [3] was 8 µg/mL (≈ 20.5 µM). It also gave an IC50 [4, 5] of 99.7 nM.

Work on C[C@H](O)c1nccn1Cc1cc(-c2ccc(C#CC3CC(NC4CC4)C3)cc2)on1 (stereo partly drawn) [Compound 98, (1S)-1-(1-{[5-(4-{[3-(cyclopropylamino)cyclobutyl]ethynyl}phenyl)-1,2-oxazol-3-yl]methyl}-1H-imidazol-2-yl)ethan-1-ol] yielded an MIC [1] of 0.25 µg/mL (≈ 0.621 µM), an MIC [2] of 16 µg/mL (≈ 39.8 µM) and an MIC [3] of 0.5 µg/mL (≈ 1.24 µM). It also gave an IC50 [4, 5] of 51.4 nM.

In the case of CCN1C[C@@H]2[C@@H](C#Cc3ccc(-c4cc(Cn5ccnc5[C@H](C)O)no4)cc3)[C@@H]2C1 [Compound 99, (1S)-1-(1-{[5-(4-{[(1R,5S,6s)-3-ethyl-3-azabicyclo[3.1.0]hexan-6-yl]ethynyl}phenyl)-1,2-oxazol-3-yl]methyl}-1H-imidazol-2-yl)ethan-1-ol], the MIC [1] is reported as 2 µg/mL (≈ 4.97 µM), the MIC [2] is reported as 16 µg/mL (≈ 39.8 µM) and the MIC [3] is reported as 2 µg/mL (≈ 4.97 µM). It also gave an IC50 [4, 5] of 91.8 nM.

C[C@H](O)c1nccn1Cc1cc(-c2ccc(C#C[C@@H]3[C@H]4CN(C=O)C[C@@H]34)cc2)no1 [Compound 102, (1R,5S,6s)-6-({4-[5-({2-[(1S)-1-hydroxyethyl]-1H-imidazol-1-yl}methyl)-1,2-oxazol-3-yl]phenyl}ethynyl)-3-azabicyclo[3.1.0]hexane-3-carbaldehyde] was tested, and the MIC [1] was 0.5 µg/mL (≈ 1.24 µM), the MIC [2] was 64 µg/mL (≈ 159 µM) and the MIC [3] was 1 µg/mL (≈ 2.48 µM). It also gave an IC50 [4, 5] of 103 nM.

C[C@H](O)c1nccn1Cc1cc(-c2ccc(C#C[C@H]3C[C@H](NC=O)C3)cc2)on1 [Compound 103, N-[trans-3-({4-[3-({2-[(1S)-1-Hydroxyethyl]-1H-imidazol-1-yl}methyl)-1,2-oxazol-5-yl]phenyl}ethynyl)cyclobutyl]formamide] showed an MIC [1] of 1 µg/mL (≈ 2.56 µM), an MIC [2] of over 128 µg/mL and an MIC [3] of 2 µg/mL (≈ 5.12 µM). It also gave an IC50 [4] of 88 nM.

Molecule CNC(=O)C(=O)N1C[C@@H]2[C@@H](C#Cc3ccc(-c4cc(Cn5ccnc5[C@H](C)O)no4)cc3)[C@@H]2C1 [Compound 105, 2-[(1R,5S,6s)-6-({4-[3-({2-[(1S)-1-Hydroxyethyl]-1H-imidazol-1-yl}methyl)-1,2-oxazol-5-yl]phenyl}ethynyl)-3-azabicyclo[3.1.0]hexan-3-yl]-N-methyl-2-oxoacetamide] has an MIC [1] of 1 µg/mL (≈ 2.18 µM), an MIC [2] of 16 µg/mL (≈ 34.8 µM) and an MIC [3] of 1 µg/mL (≈ 2.18 µM). It also gave an IC50 [4, 5] of 63.8 nM.

Molecule C[C@H](O)c1nccn1Cc1cc(-c2ccc(C#C[C@@H]3[C@H]4CN(C(=O)C(N)=O)C[C@@H]34)cc2)on1 [Compound 107, 2-[(1R,5S,6s)-6-((4-[3-((2-[(1S)-1-hydroxyethyl]-1H-imidazol-1-yl}methyl)-1,2-oxazol-5-yl]phenyl}ethynyl)-3-azabicyclo[3.1.0]hexan-3-yl]-2-oxoacetamide] has an MIC [1] of 2 µg/mL (≈ 4.49 µM), an MIC [2] of 8 µg/mL (≈ 18 µM) and an MIC [3] of 1 µg/mL (≈ 2.24 µM). It also gave an IC50 [4, 5] of 78.6 nM.

C[C@H](O)c1nccn1Cc1cc(-c2ccc(C#C[C@@H]3[C@H]4CN(C(=O)C(=O)N(C)C)C[C@@H]34)cc2)on1 [Compound 108, 2-[(1R,5S,6s)-6-((4-[3-((2-[(1S)-1-hydroxyethyl]-1H-imidazol-1-yl}methyl)-1,2-oxazol-5-yl]phenyl}ethynyl)-3-azabicyclo[3.1.0]hexan-3-yl]-N,N-dimethyl-2-oxoacetamide] was tested, and the MIC [1] was 4 µg/mL (≈ 8.45 µM), the MIC [2] was 16 µg/mL (≈ 33.8 µM) and the MIC [3] was 4 µg/mL (≈ 8.45 µM). It also gave an IC50 [4, 5] of 122 nM.

For C[C@H](O)c1nccn1Cc1cc(-c2ccc(C#CC3C(CO)C3CO)cc2)on1 (stereo partly drawn) [Compound 109, (1S)-1-(1-{[5-(4-{[2,3-Bis(hydroxymethyl)cyclopropyl]ethynyl}phenyl)-1,2-oxazol-3-yl]methyl}-1H-imidazol-2-yl)ethan-1-ol], the MIC [1] was 16 µg/mL (≈ 40.7 µM), the MIC [2] was 64 µg/mL (≈ 163 µM) and the MIC [3] was 32 µg/mL (≈ 81.3 µM). For the same molecule, the IC50 [4] was 131 nM.

For C[C@H](O)c1nccn1Cc1cc(-c2ccc(C#C[C@@H]3[C@H]4CN(CCCC(=O)O)C[C@@H]34)cc2)no1 [Compound 111, 4-[(1R,5S,6s)-6-({4-[5-({2-[(1S)-1-hydroxyethyl]-1H-imidazol-1-yl}methyl)-1,2-oxazol-3-yl]phenyl}ethynyl)-3-azabicyclo[3.1.0]hexan-3-yl]butanoic acid], the MIC [1] was 1 µg/mL (≈ 2.17 µM), the MIC [2] was 8 µg/mL (≈ 17.4 µM) and the MIC [3] was 4 µg/mL (≈ 8.69 µM). It also gave an IC50 [4, 5] of 197 nM.

C[C@H](O)c1nccn1Cc1cc(-c2ccc(C#CC3CC(NC4COC4)C3)cc2)on1 (stereo partly drawn) [Compound 112, (1S)-1-[l-({5-[4-({3-[(oxetan-3-yl)amino]cyclobutyl}ethynyl)phenyl]-1,2-oxazol-3-yl}methyl)-1H-imidazol-2-yl]ethan-1-ol] was tested, and the MIC [1] was 0.5 µg/mL (≈ 1.19 µM), the MIC [2] was 32 µg/mL (≈ 76.5 µM) and the MIC [3] was 1 µg/mL (≈ 2.39 µM). The IC50 [4] was 79.7 nM.

With C[C@H](O)c1nccn1[C@H](CN)c1cc(-c2ccc(C#CC3(C)COC3)cc2)on1 [Compound 116, (1S)-1-{1-[(1R)-2-amino-1-(5-{4-[(3-methyloxetan-3-yl)ethynyl]phenyl}-1,2-oxazol-3-yl)ethyl]-1H-imidazol-2-yl}ethan-1-ol] the MIC [1] was 0.5 µg/mL (≈ 1.27 µM), the MIC [2] was 64 µg/mL (≈ 163 µM) and the MIC [3] was 2 µg/mL (≈ 5.1 µM). The IC50 [4, 5] was 79.1 nM.

Molecule C[C@H](O)c1nccn1Cc1cc(-c2ccc(C#CC3CCS(=O)(=O)C3)cc2)on1 (stereo partly drawn) [Compound 119, 3-((4-(3-((2-((S)-1-hydroxyethyl)-1H-imidazol-1-yl)methyl)isoxazol-5-yl)phenyl)ethynyl)tetrahydrothiophene 1,1-dioxide] has an MIC [1] of 8 µg/mL (≈ 19.4 µM), an MIC [2] of over 128 µg/mL and an MIC [3] of 16 µg/mL (≈ 38.9 µM). For the same molecule, the IC50 [4, 5] was 265 nM.
